Here are results for 2 molecules from ChEMBL document CHEMBL1122446.

Assay [1] concerns the target T1, Dihydrofolate reductase (Gallus gallus) (UniProt P00378).
T1 sequence (whole entry): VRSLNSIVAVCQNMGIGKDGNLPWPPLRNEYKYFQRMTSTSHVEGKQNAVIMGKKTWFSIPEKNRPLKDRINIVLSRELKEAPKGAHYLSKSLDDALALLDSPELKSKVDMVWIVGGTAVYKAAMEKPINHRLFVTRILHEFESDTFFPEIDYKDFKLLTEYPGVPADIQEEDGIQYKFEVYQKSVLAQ

Assay [2] concerns the target Dihydrofolate reductase (Lactobacillus casei) (UniProt P00381). Conditions: Lacticaseibacillus casei.
Assay [3] addresses T2, Dihydrofolate reductase (Homo sapiens) (UniProt P00374).
T2 sequence (whole entry): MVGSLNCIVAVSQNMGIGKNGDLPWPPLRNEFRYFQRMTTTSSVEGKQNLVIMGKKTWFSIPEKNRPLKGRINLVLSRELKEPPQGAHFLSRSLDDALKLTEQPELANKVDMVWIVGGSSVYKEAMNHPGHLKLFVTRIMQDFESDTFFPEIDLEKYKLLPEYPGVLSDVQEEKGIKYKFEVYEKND

Sequence of Dihydrofolate reductase (Lactobacillus casei) (P00381 whole entry): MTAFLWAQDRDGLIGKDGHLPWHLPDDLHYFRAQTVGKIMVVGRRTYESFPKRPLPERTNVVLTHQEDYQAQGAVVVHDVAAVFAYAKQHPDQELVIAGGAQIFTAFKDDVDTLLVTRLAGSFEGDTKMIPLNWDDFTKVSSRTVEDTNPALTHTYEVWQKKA

On to `CN(Cc1cnc2nc(N)nc(N)c2n1)c1ccc(C(=O)NC(CCCCN)C(=O)O)cc1` (stereo unspecified), for which the figures for the I / E100 in assay [1], in assay [2] and in assay [3] were 1.4, 1 and 1, respectively.

On to `CN(C)c1cccc2c(S(=O)(=O)NCCCCC(NC(=O)c3ccc(N(C)Cc4cnc5nc(N)nc(N)c5n4)cc3)C(=O)O)cccc12` (stereo unspecified), for which the I / E100 in assay [1] stood at 3.5; in assay [2] it was 1.9; in assay [3] it was 2.9.
